Laboratory results reported in article PMC12040169 (PLOS Biology, 2025).

Test: in vitro
Conditions: human, hela cells, % viability

| Compound | viability at 28.5 h, 10 µM [%] |
| --- | --- |
| O=C(NCc1ccc2c(c1)OCO2)c1ccccc1CCc1ccccc1 [CBK268591] | 107 |
| C/C(=N/NC(N)=S)c1ccccc1OCC(=O)O [CBK007123] | 97.9 |
| O=C(Nc1ccc2nc(-c3ccc(-c4nc5ccc(NC(=O)c6cccs6)cc5[nH]4)cc3)[nH]c2c1)c1cccs1 [CBK261590] | 87.1 |
| O=C(CC1CCCCO1)Nc1cccc(Cn2ccnc2)c1 (stereo not shown) [CBK282204] | 90.6 |
| O=C(NCc1ccccc1)/C(=N\O)c1ccccc1 [CBK288427] | 91.9 |
| Cc1ccc2nc(Cl)c(/C=N/NC(=O)CN3CCOCC3)cc2c1 [CBK262731] | 91.2 |
| Cc1nn(-c2ccc(F)cc2)c2[nH]c(=O)c(CNC3CC3)cc12 [CBK283121] | 98.1 |
| O=[N+]([O-])c1ccc(N2CCNCC2)cc1NCc1ccccn1 [CBK268074] | 122 |
| Cc1nnc(CN(CC2CCCO2)C2CCC(C)CC2)n1C (stereo not shown) [CBK305548] | 95.2 |
| CCCNc1nc(-c2cccc(O)c2)cn2ccnc12 [CBK066395] | 93.5 |
| COc1ccc(CCNC(=O)C(N)=O)cc1OC [CBK288457] | 90.9 |
| Cn1cccc1C(=O)N[C@H]1CCN2C(=O)N(c3cccc(F)c3)C(=O)[C@@H]2C1 [CBK289549] | 88.8 |
| COc1ccc(C(=O)N2CCC3(CCCN(C(=O)CC4NC(=O)NC4=O)C3)C2)cc1OC (stereo not shown) [CBK137082] | 93.7 |
| Cc1nnc2nc(-c3ccc(Cl)cc3Cl)[nH]n12 [CBK027731] | 88.1 |
| CC(C)C[C@@H](C(=O)N1CCC(C(=O)O)CC1)n1c(=O)[nH]c2ccccc2c1=O [CBK286762] | 88.5 |
| Cc1ccc(C(C)C)c(OCc2ccc(C(=O)Nc3ccc(S(N)(=O)=O)cc3C)o2)c1 [CBK265833] | 96.3 |
| CN1CCc2nc(SCc3cccnc3)c(C#N)cc2C1 [CBK267463] | 87.4 |
| O=C(Nc1cc(-c2nc3ncccc3o2)ccc1Cl)c1ccco1 [CBK269730] | 104 |
| O=C(O)c1ccc(-n2nnnc2Sc2nc([N+](=O)[O-])nn2Cc2ccccc2F)cc1 [CBK268498] | 91.5 |
| c1ccc(-c2nc(C3CCNCC3)n3ccncc23)cc1 [CBK035434] | 100 |
| Cn1ncc2c1CCCN(C(=O)COc1ccc(F)cc1F)C2 [CBK285229] | 90.6 |
| O=S(=O)(c1ccccc1)N(CC(F)(F)F)c1ccc(C(O)(C(F)(F)F)C(F)(F)F)cc1 [CBK024768] | 121 |

| Compound | viability at 28.5 h, 10 µM [%] |
| --- | --- |
| CN1C(=O)c2ccccc2C(=O)[C@@]2(C)CN(C(=O)C3CCCC3)C[C@@H]12 [CBK284570] | 91.5 |
| O=C(c1nc2ccccc2s1)C1CCN(C(=O)CCc2ccc(-c3ccccc3)o2)CC1 [CBK286170] | 86.8 |
| Cc1nn(C)c(C)c1S(=O)(=O)n1ccn(-c2cccc(C(F)(F)F)c2)c1=O [CBK106593] | 98.7 |
| CSCCCNC(=O)N1CCN(CCc2ccccc2)CC1 [CBK158900] | 81.6 |
| O=C(NCc1ccc2c(c1)OCO2)c1cncc(-c2ccc(C(=O)N3CCOCC3)cc2)c1 [CBK158614] | 108 |
| Cc1ccc(N2CCN(CC(O)COc3ccc(C(=O)c4ccc(Cl)cc4)cc3)CC2)c(C)c1 (stereo not shown) [CBK266117] | 110 |
| CNC(=O)NC(=O)C(C)NCC1(c2cc(C)ccc2OC)CCOCC1 (stereo not shown) [CBK306318] | 79.1 |
| COc1ccc(-c2ccc(C#N)c(SCc3ccncc3)n2)cc1 [CBK269883] | 102 |
| Cc1cc2nc(NC(=N)N)nc(C)c2cc1C [CBK262269] | 83.8 |
| CCC(NC(=O)Cc1c(C)nc(SC)[nH]c1=O)c1ccc(F)cc1 (stereo not shown) [CBK282653] | 81.7 |
| CCC(CC)C(=O)N(C)c1c(C)nc2ccc(C(=O)NCCc3c[nH]c4ccccc34)cn12 [CBK146495] | 85.5 |
| CCc1nc2ccc(C(=O)NC3=NN(c4ccccc4)C(=O)C3)cn2c1N(C)C(=O)COc1ccccc1 [CBK145873] | 91.3 |
| Cc1ccc2[nH]c3c(c2c1)CCNC31CCN(C(=O)[C@@H]2CCCC[C@@H]2C(=O)O)CC1 [CBK047222] | 89.9 |
| O=C(NNc1ccc([N+](=O)[O-])cc1)c1cccs1 [CBK261709] | 92.1 |
| CCc1nc2ccc(NC(=O)CCCc3ccncc3)cc2[nH]1 [CBK283268] | 111 |
| O=C(O)c1ccc(S(=O)(=O)Nc2ccc(OC3CCCC3)cc2)cc1 [CBK296658] | 110 |
| O=C(c1cccs1)N1C[C@@H]2CCCCN(C3CCOCC3)[C@@H]2C1 [CBK285503] | 107 |
| O=C(CCc1ccccc1)N1CCC(c2cccc(Cc3cccc(F)c3)n2)CC1 [CBK286219] | 97.5 |
| CCc1c[nH]c(SCC(=O)c2cc(C)n(C3CCS(=O)(=O)C3)c2C)n1 (stereo not shown) [CBK306486] | 83.5 |
| CC(C)(Oc1ccc(Cl)cc1)C(=O)Nc1ccc(CN2CCOCC2)cc1 [CBK269940] | 89.1 |
| CCN(CCO)c1ccc(Nc2nc(-c3ccc(F)c(Cl)c3)cn3ccnc23)cc1 [CBK038042] | 100 |
| CCn1cc(S(=O)(=O)N2CCC3(CC2)OCCO3)cn1 [CBK270321] | 112 |

| Compound | viability at 28.5 h, 10 µM [%] |
| --- | --- |
| O=C(Cc1c[nH]c2ccccc12)NC(Cc1ccccc1)C(=O)O (stereo not shown) [CBK286770] | 120 |
| Cc1[nH]c2ccccc2c1/C=N/c1cccc2c(/N=C/c3c(C)[nH]c4ccccc34)cccc12 [CBK261227] | 97.6 |
| Cc1ccc(CCn2nc(C)cc2C)cn1 [CBK021375] | 104 |
| CC(C)Nc1cncc(Sc2ccccc2O)n1 [CBK091438] | 88 |
| Cc1nc2c(OCc3ccc(C#N)cc3)cccn2c1N(C)Cc1cccs1 [CBK147336] | 92 |
| CC(C)CCc1ccc(C#N)c(=O)[nH]1 [CBK016227] | 98.8 |
| CC(=O)Nc1ccc(-c2cncc(N(CCO)CCO)n2)cc1 [CBK065789] | 106 |
| O=C(Nc1nc(OCC(F)(F)F)cnc1-c1ccc(Cl)cc1Cl)c1cc2ccccc2s1 [CBK145358] | 87.4 |
| COc1ccc(C)cc1NC(=O)CN(c1ccc(F)cc1)S(=O)(=O)c1ccc(C)cc1 [CBK264122] | 101 |
| CCc1cccc2c(/C=C3/SC(=S)N(CC(=O)O)C3=O)c[nH]c12 [CBK264937] | 94 |
| CCSc1nc(=O)c2c(n1C)NC(=O)CC2c1ccc(OC)cc1 (stereo not shown) [CBK307542] | 89.9 |
| COc1cc2oc(=O)c(CC(=O)N[C@@H](CC(C)C)C(=O)O)c(C)c2cc1Cl [CBK286772] | 104 |
| CC(=O)c1ccc(-c2cnc3[nH]c(=O)n([C@H](C)c4ccccc4)c3n2)s1 [CBK064375] | 98.2 |
| Cc1cc(C)nc(-n2ncc(C#N)c2N)n1 [CBK270227] | 87 |
| Cc1cc2occ(CC(=O)NC3CCCN(C)C3)c2cc1C (stereo not shown) [CBK282611] | 93.1 |
| Cc1ccc(C(C)(C)C(=O)N2CCC(CC(=O)N(C)C)CC2)cc1 [CBK281973] | 99.8 |
| OCCn1ncc2c(NCc3ccc(-n4cccn4)nc3)ncnc21 [CBK306326] | 87.8 |
| Cc1nn2c(O)c3c(nc2c1-c1cccs1)CCC3 [CBK283729] | 85.7 |
| CN(C)CCCN(Cc1ccco1)Cc1c[nH]nc1-c1cccs1 [CBK283198] | 106 |
| Cc1nc(C2CN(c3ccnc4c(F)cccc34)CCO2)no1 (stereo not shown) [CBK304464] | 80.7 |
| O=C(CCCn1nnc2ccccc2c1=O)NCc1cccc(Cl)c1 [CBK294446] | 82.8 |
| Cc1cc(NS(=O)(=O)c2cccc([N+](=O)[O-])c2)n(C)n1 [CBK067243] | 99.2 |

| Compound | viability at 28.5 h, 10 µM [%] |
| --- | --- |
| COc1ccccc1OCC(=O)N1CCNC1=O [CBK288201] | 93.8 |
| CCC(=O)N1c2ccc(C(O)CN3CCSCC3)cc2CC1C (stereo not shown) [CBK283122] | 91.5 |
| Cc1ccc2[nH]c(Cc3ccc(NC(=O)c4cc(=O)n(C)c5ccccc45)cc3)nc2c1 [CBK285815] | 98.5 |
| O=C(/C=C/c1ccc(-c2ccccc2[N+](=O)[O-])o1)Nc1ccc(-c2nc3ncccc3o2)cc1 [CBK263434] | 99.2 |
| COc1ccc(OC)c(CN(C(=O)c2oc3ccc(F)cc3c2C)c2cnn(C)c2)c1 [CBK298278] | 89.1 |
| CNC(=S)NNC(=O)CN1CCSCC1 [CBK262444] | 88.3 |
| O=C(O)c1ccccc1C(=O)N1CCC2(CC1)OCCc1c2[nH]c2ccccc12 [CBK046981] | 94.9 |
| CN(C)CCN1C(=O)C(O)=C(C(=O)c2ccc(S(=O)(=O)N3CCOCC3)cc2)C1c1ccc(Br)cc1 (stereo not shown) [CBK264693] | 93.5 |
| CC12CN3CC(C)(CN(C1)C3c1ccc(O)cc1)C2O (stereo not shown) [CBK262663] | 107 |
| COc1cc(NC(=O)CN2C(=O)c3ccc([N+](=O)[O-])cc3C2=O)c(C(=O)O)cc1OC [CBK265109] | 97.7 |
| NS(=O)(=O)c1ccc(CNC(=O)c2ccccc2Nc2cccc(C(F)(F)F)c2)cc1 [CBK149579] | 94.4 |
| CCC(C(=O)O)c1ccc(-n2sc3ccccc3c2=O)cc1 (stereo not shown) [CBK011773] | 105 |
| CC(=O)Oc1cc(C)cc(C#N)c1 [CBK038296] | 87.6 |
| CCn1c(C)nc2cc(S(N)(=O)=O)ccc21 [CBK260950] | 92.1 |
| COc1c(C)cc(-c2nc(C)nc(C)c2C)cc1C [CBK307506] | 96.7 |
| CN1CCC(N2CCN(C(=O)Nc3ccc(Cl)cc3)CC2)CC1 [CBK155899] | 109 |
| COc1ccc(Cl)cc1N1CCN(Cc2cc(OC)c(OC)c(OC)c2)CC1 [CBK126406] | 43.3 |
| O=C(Cc1ccc(F)cc1)N1CCn2c(nnc2C2CC2)C1 [CBK283688] | 113 |
| COC(=O)CCc1ccc(S(=O)(=O)N2CCCN(Cc3cc(F)cc(F)c3)CC2)cc1 [CBK062990] | 106 |
| O=C(NCc1ccccc1)NC(=O)C1CCN(CCCOc2cccc3ccccc23)CC1 [CBK034856] | 84.6 |
| Cc1cnc2c(c1)cc(C1CCOCC1)n2CC(=O)N(C)C [CBK284754] | 102 |
| CC[C@H](Cn1c(=O)oc2ccccc21)NC(=O)c1ccco1 [CBK284541] | 86.7 |
